Test results published in US6440400B1, “Trimethylcylohexane derivatives and melanin-formation inhibitors and perfumeholding agents with the use of the same” (Takasago International Corporation, priority 1998, dated 2002).

Columns and labels:
B-16 melanoma cells = assay: Melanin production inhibiting effect on chromatophore (visual whiteness of cell pellets); type: cell-based; design: key: −: Equal to solvent control (black); +: Slightly different from solvent control (dark gray); ++: Markedly different from solvent control (pale gray); +++: No coloring of cells (white); conditions: 3 days culture with sample
Procedure: A plastic culture flask (25 cm^2) was inoculated with 8×10^4 B-16 melanoma cells, which were incubated in a DMEN medium (Nippon Suisan Kaisha, Ltd.) containing 10% serum in the presence of 5% CO2 at 37° C. After 3 days, a test sample diluted with EtOH was added to the medium at a concentration of 0.4, 0.8, 1.6, 3.1 and 6.2 ppm and the culture was continued for further 3 days.
After completion of the culture to remove the culture followed by washing with a phosphate buffer (hereinafter referred to as PBS), the cells were removed from the flask using a medium containing trypsin and EDTA (ethylenediamine tetraacetic acid) and the cells were recovered from the cell suspension by centrifugation.
The cells thus obtained were washed once with PBS and then the pellets were evaluated visually for their whiteness.
Similarly to Example 16, the melanin production inhibiting effects of arbutin, tetrahydroionol, β-ionone, dihydro-β-ionone and the novel compounds of the invention (1′i, 1″i, 1^4′i) on a chromatophore were determined.

[1] = Patch test of 2% lanolin paste on upper arm of panelists; type: in vivo, human; conditions: 2% by weight in lanolin paste, 24 h patch on upper arm, 30 panelists, observed at removal and 24 h later

| SMILES | whiteness of cell pellets, evaluated visually (B-16 melanoma cells; 1.6 ppm) | whiteness of cell pellets, evaluated visually (B-16 melanoma cells; 3.1 ppm) | whiteness of cell pellets, evaluated visually (B-16 melanoma cells; 6.2 ppm) | whiteness of cell pellets, evaluated visually (B-16 melanoma cells; 0.4 ppm) | whiteness of cell pellets, evaluated visually (B-16 melanoma cells; 0.8 ppm) | Number of panelists exhibiting abnormality [1] | Number ot panelists exhibiting no abnormality [1] |
| --- | --- | --- | --- | --- | --- | --- | --- |
| CC(C)=CCCC(O)C=CC1C(C)CCCC1(C)C (stereo not drawn) [Compound 1″l, 1-(2′,2′,6′-Trimethylcyclohexan-1′-yl)-7-methyloctan-1,6-dien-3-ol] | +++ | +++ | +++ |  |  |  |  |
| CC(=O)CCC1=C(C)CCCC1(C)C [Dihydro-β-ionone, dihydro-β-ionone, reference compound] | − | + | ++ | − | − |  |  |
| CCCCCC(O)C(C)=CC1C(C)CCCC1(C)C (stereo not drawn) [Compound 1″x, 1-(2′,2′,6′-Trimethylcyclohexan-1′-yl)-2-methyloctan-1-en-3-ol] | + | ++ | +++ |  |  |  |  |
| CCCCCC(O)C=CC1C(C)CCCC1(C)C (stereo not drawn) [Compound 1″i, 1-(2′,2′,6′-trimethylcyclohexan-1′-yl)octan-1-en-3-ol] | +++ | +++ | +++ | − | + | 0 | 30 |
| CC(=O)/C=C/C1=C(C)CCCC1(C)C [β-Ionone, β-ionone, reference compound] | − | + | ++ | − | − |  |  |
| OC[C@H]1O[C@@H](Oc2ccc(O)cc2)[C@H](O)[C@@H](O)[C@@H]1O [ARBUTIN, arbutin, reference compound] | − | − | + | − | − |  |  |
| CCCCCCCC(O)C=CC1C(C)CCCC1(C)C (stereo not drawn) [Compound 1″m, 1-(2′,2′,6′-Trimethylcyclohexan-1′-yl)-decan-1-en-3-ol] | + | + | +++ |  |  |  |  |
| CC(O)CCC1C(C)CCCC1(C)C (stereo not drawn) [Tetrahydroionol, tetrahydroionol, reference compound] | − | + | ++ | − | − |  |  |
| CCCCCC(=O)C(C)=CC1C(C)CCCC1(C)C (stereo not drawn) [1′x, 1-(2′,2′,6′-Trimethylcyclohexan-1′-yl)-2-methyloctan-1-en-3-one] | + | ++ | +++ |  |  |  |  |
| CCCC(O)CCC1C(C)CCCC1(C)C (stereo not drawn) [1^4′c] | + | ++ | +++ |  |  |  |  |
| CCC(O)C(C)=CC1C(C)CCCC1(C)C (stereo not drawn) [1″u] | + | ++ | +++ |  |  |  |  |
| CC(C)C(O)CCC1C(C)CCCC1(C)C (stereo not drawn) [1^4′e] | + | ++ | +++ |  |  |  |  |
| CC(C)CCCC(O)C=CC1C(C)CCCC1(C)C (stereo not drawn) [Compound 1″k, 1-(2′,2′,6′-Trimethylcyclohexan-1′-yl)-7-methyloctan-1-en-3-ol] | +++ | +++ | +++ |  |  |  |  |
| CC1CCCC(C)(C)C1C=CC(=O)C(C)(C)C (stereo not drawn) [1′h] | + | ++ | +++ |  |  |  |  |
| CCCCCC(O)CCC1C(C)CCCC1(C)C (stereo not drawn) [Compound 1^4′i, 1-(2′,2′,6′-Trimethylcyclohexan-1′-yl)-octan-3-ol] | ++ | +++ | +++ | − | − |  |  |
| CCCCCC(=O)C=CC1C(C)CCCC1(C)C (stereo not drawn) [Compound 1′i, 1-(2′,2′,6′-Trimethylcyclohexan-1′-yl)octan-1-en-3-one] | +++ | +++ | +++ | − | + | 0 | 30 |
| CCC(O)CCC1C(C)CCCC1(C)C (stereo not drawn) [1^4′b] | + | ++ | +++ |  |  |  |  |
| CCCCCCCC(=O)C=CC1C(C)CCCC1(C)C (stereo not drawn) [Compound 1′m, 1-(2′,2′,6′-Trimethylcyclohexan-1′-yl)-decan-1-en-3-one] | + | + | +++ |  |  |  |  |
| CCC(=O)C=CC1C(C)CCCC1(C)C (stereo not drawn) [1′b] | + | ++ | +++ |  |  |  |  |
| CCCCCCCC(O)CCC1C(C)CCCC1(C)C (stereo not drawn) [Compound 1^4′m, 1-(2′,2′,6′-Trimethylcyclohexan-1′-yl)-decan-3-ol] | + | + | + |  |  |  |  |
| CC(C)CC(=O)C=CC1C(C)CCCC1(C)C (stereo not drawn) [1′g] | + | ++ | +++ |  |  |  |  |
| CC(C)CC(O)CCC1C(C)CCCC1(C)C (stereo not drawn) [1^4′g] | ++ | +++ | +++ |  |  |  |  |
| CC(C)CC(O)C=CC1C(C)CCCC1(C)C (stereo not drawn) [1″g] | +++ | +++ | +++ |  |  |  |  |
| CC(C)=CCCC(=O)C=CC1C(C)CCCC1(C)C (stereo not drawn) [Compound 1′l, 1-(2′,2′,6′-Trimethylcyclohexan-1′-yl)-7-methyloctan-1,6-dien-3-one] | + | +++ | +++ |  |  |  |  |
| CCCC(=O)C=CC1C(C)CCCC1(C)C (stereo not drawn) [1′c] | + | ++ | +++ |  |  |  |  |
| CC(C)CCCC(=O)C=CC1C(C)CCCC1(C)C (stereo not drawn) [Compound 1′k, 1-(2′,2′,6′-Trimethylcyclohexan-1′-yl)-7-methyloctan-1-en-3-one] | ++ | +++ | +++ |  |  |  |  |
| CCC(O)C=CC1C(C)CCCC1(C)C (stereo not drawn) [1″b] | + | ++ | +++ |  |  |  |  |
| CCCC(O)C=CC1C(C)CCCC1(C)C (stereo not drawn) [1″c] | ++ | +++ | +++ |  |  |  |  |
